The test system of one series is beagle dogs. The note with it: Ca-EDTA compared with Ca-DTPA; cited from earlier work.
Series [1] deals with large intestine tissue pieces (crypts). Briefly: Evaluation 1 of in vitro crypt isolation effect. In kind it is cell-based, mice (C57B6/j). The note with it: 37° C. 30 minutes. Here is the method:
Eight-week-old male mice (C57B6/j, CLEA Japan, Inc.) were sacrificed by cervical dislocation and the whole large intestine was removed. […] The intestinal tract was longitudinally opened and 5-mm-long tissue pieces were obtained. The tissue pieces were placed in 1.5-mL microtubes each containing 1 mL of Hank's balanced salt solution. The tissue pieces were washed by stirring for 10 minutes with a microtube mixer (MT-400 available from TOMY SEIKO CO., LTD.). After washing, the tissue pieces were transferred to other 1.5-mL microtubes each containing 1 mL of Hank's balanced salt solution, and washed in the same manner.
The tissue pieces were transferred to 1.5-mL microtubes containing the compositions (C-1) to (C-6) and the comparative compositions (C′-1) to (C′-7) each in an amount of 1 mL and were allowed to stand at 37° C. for 30 minutes.
After 30 minutes, the tissue pieces were transferred to other 1.5-mL microtubes each containing 1 mL of Hank's balanced salt solution and stirred for five minutes with a microtube mixer. Thereby, the crypts were isolated. […] Thereby, the tissue was fixed. A 50-μL portion was sampled therefrom and dropped onto dishes, and the number of crypts contained was counted using an optical microscope. The number of crypts was counted three times for each concentration, and the average was calculated therefrom.
The presence of one or more crypts was considered that a sufficient embrittlement effect was obtained.

Series [2] relates to minced distal large intestine tissue (crypts). The experiment in a line: Evaluation 2 of in vitro crypt isolation effect. The note with it: 37° C. 30 minutes. In kind it is cell-based, mice (C57B6/j). The protocol: Thereby, the crypts were isolated. […] Thereby, the tissue was fixed. A 50-μL portion was sampled therefrom and dropped onto dishes, and the number of crypts contained was counted using an optical microscope. The number of crypts was counted three times for each concentration, and the average was calculated therefrom.

The next series relates to proximal large intestine. Briefly: Evaluation 1 of in vivo epithelial detachment effect. The arrangement: species or system mice (C57B6/j). As to conditions: 8 mL at 50° C. over two minutes, once.

SMILES strings stand for the structures.

Description for proximal large intestine: A longitudinal 1-cm abdominal midline incision was made, and the proximal large intestine was exposed to the outside of the abdominal cavity. A small incision was made in the proximal large intestine 1 cm anal side from the cecum, and a catheter was inserted toward the anal. […] A small incision was made 1 cm anal side from the catheter insertion site, and another catheter was inserted toward the oral side. These two catheters allowed perfusion of the 1-cm-long intestinal tract. The catheters were each fixed with a thread from the outside of the intestinal tract, together with the vasculature, to cut off the blood flow in the 1-cm-long intestinal tract sandwiched between the two catheters.
Immediately after the injection of the biological tissue embrittling agents, 25 mL of Dulbecco's phosphate-buffered saline (without Ca and Mg) was continuously injected three times each over 45 seconds, whereby the crypts were detached. Then, 20 mL of Dulbecco's Modified Eagle's Medium, high glucose, (Sigma-Aldrich Cat #D5796) was injected to antagonize the biological tissue embrittling agents. […] The large intestine was longitudinally cut and flat opened, and was imaged with a fluorescent stereo microscope (Leica M165 FC) and an all-in-one fluorescence microscope (KEYENCE BZ-X800). The images were analyzed with ImageJ and the detached area was measured. […]

For `O=C([O-])CN(CCN(CC(=O)[O-])CC(=O)[O-])CCN(CC(=O)[O-])CC(=O)[O-].[Ca+2].[Na+].[Na+].[Na+]` [Ca-DTPA], in the series with beagle dogs, the “safety of intravenous administration for one month” value is reported as “no significant difference in safety”.

As to `O=C(O)CN(CCN(CC(=O)O)CC(=O)O)CC(=O)O.[Ca]` [Ca-EDTA], the “safety of intravenous administration for one month” value in the series on beagle dogs is “no significant difference in safety”.

With `O=C([O-])CN(CCN(CC(=O)O)CC(=O)O)CC(=O)[O-].[Na+].[Na+]` [(Z′-1), disodium ethylenediaminetetraacetate], the Number of crypts in series [1] (2 mM, compositions (C-1), (C′-2)) is given as 48.67; in series [1] (8 mM, compositions (C-2), (C′-3)) it was 156.33; in series [1] (16 mM, compositions (C-3), (C′-4)) it was 140; in series [1] (32 mM, compositions (C-4), (C′-5)), 129.33; in series [1] (64 mM, compositions (C-5), (C′-6)), 115.33; in series [1] (128 mM, compositions (C-6), (C′-7)) it was 95.67. In addition, the Number of crypts in series [2] (3 mM, compositions (C-7) to (C-10), (C′-8)) came to 108.89; in series [2] (10 mM, compositions (C-11) to (C-14), (C′-9)), 169.56. The “Evaluation 1 of epithelial detachment effect Detached area” value in the series on proximal large intestine (230 mM, agents (M-1), (M′-2)) is given as 30.2 mm^2; in the series with proximal large intestine (500 mM, agent (M′-3)), 66.0 mm^2.

The values are drawn from patent US20240059644A1, “COMPOUND, COMPOSITION, BIOTISSUE EMBRITTLEMENT AGENT, BIOTISSUE SURFACE DETACHMENT METHOD, AND BIOTISSUE DETACHMENT KIT” (SANYO CHEMICAL INDUSTRIES, LTD., priority 2020, published 2024).
